Measured values published in patent US5688824A, “Use of leflunomide to prevent or control xenograft rejection” (priority 1996, dated 1997).
“Also recorded” adds a separate entry of the source. Where two headings read alike, the source gives them in different places.

Columns and labels:
glomerulonephritis = details: oral 2 mg/kg/day, prophylactic or therapeutic; cited from earlier work
[1] = system: platelet derived growth factor-receptor (PDGFR) tyrosine kinase; details: cited from earlier work
[2] = system: chronic rejection of rat cardiac allografts; test: chronic rejection of rat cardiac allografts (LEW to F-344), histologic scoring of arterial intimal thickening; type: in vivo
Description: These rats share major histocompatibility antigens but differ at minor histocompatibility loci. A short course of immunosuppression results in a slow chronic rejection that gradually destroys the graft, with the appearance of reproducible histology similar to the chronic rejection seen in humans.
Donor and recipient animals were anesthetized with Ketamine/Xylazine (Fort Dodge, Iowa) 100/5 mg/kg. […] Cardiac allograft survival was determined by daily abdominal palpation, and rejection was considered complete upon cessation of heart beat.
The three control groups were given no treatment and were sacrificed at designated 30-day intervals to observe the development of chronic rejection. The treatment groups were administered daily doses of leflunomide or leflunomide and CsA according to Table 1 below, beginning at day 30 and continuing to day 60 or day 90. CsA in oral form (Sandimmune, Sandoz Corporation, East Hanover, N.J.) was administered at 2, 5 or 10 mg/kg to rats by gavage.
Upon sacrifice, the heart allograft was removed, serially sectioned into approximately 2-mm slices, and fixed in 10% buffered formalin overnight. The sections were embedded in paraffin and stained with hematoxylin and eosin, Verhoeff's elastin stain and Masson's trichrome stain to evaluate pathologic changes and to score graft arterial intimal thickening. The remaining sections were immunostained using standard indirect avidin-biotin techniques (Vectastain ABC-Elite, Vector Laboratories, Burlingame, Calif.) with monoclonal antibodies against smooth muscle actin (DAKO, Carpin Terra, Calif.) to evaluate intimal smooth muscle proliferation, and with polyclonal antibodies against phosphotyrosine to evaluate tyrosine kinase activity by counting phosphotyrosine positive cells. […] Allospecific antibody titres among the groups were compared using the unpaired Student's t-test.
The sections were examined by light microscopy, and 20 to 70 arteries in each allograft were blindly scored for severity of arterial intimal thickening according to the general standard of Adams et al., supra, using the following histological scores: a score of 0 was a normal artery; a score of 1, intimal thickening up to approximately 50% of the perimeter of the vessel, with less than 20% luminal compromise; a score of 2, intimal thickening involving between 50% and 100% of the perimeter of the vessel, with less than 20% luminal compromise; score of 3, circumferential intimal thickening, with more than 20% but less than 50% luminal compromise; score of 4, circumferential intimal thickening, with more than 50% but less than 80% luminal compromise; score of 5, circumferential intimal thickening, with more than 80% luminal compromise. […] Statistical comparisons of histological scores were performed using the Mann-Whitney U--Wilcoxon Rank Sum W Test.

[3] = system: rat adjuvant arthritis models and rat allergic encephalitis model; details: cited from earlier work
IL-2 = details: cited from earlier work
allogeneic kidney graft = details: cited from earlier work
[4] = system: rejection of concordant hamster to rat renal xenografts; test: hamster to rat concordant renal xenograft rejection; type: in vivo, Golden Syrian hamster donor, LEW rat recipient
Description: Like Example 2, this experiment was also designed to determine a dose response curve using leflunomide as monotherapy, CsA as monotherapy, and both used as combination therapy. End points used to assess efficacy were duration of time to rejection, mortality, and histologic differences among the treatment groups.
Golden Syrian hamsters and LEW rats were maintained as in Example 2, and leflunomide and CsA were administered in the same manner as in Example 2. Renal transplantation was performed using cuffs of aorta and vena cava for vascular anastomosis; the donor ureter bearing a button of bladder was connected to the recipient bladder. Both recipient kidneys were removed at the time of transplantation.
Leflunomide monotherapy was dosed at 2.5, 5, 10 and 15 mg/kg. CsA monotherapy at 10 mg/kg was given to one group. Two groups were given combination therapy of leflunomide 5 mg/kg with CsA 5 mg/kg, and leflunomide 5 mg/kg with CsA 10 mg/kg. Serum creatinine was measured at 7 days and 21 days. Rejection was defined as death of the animal from uremia with histology consistent with immune-mediated injury.
At the death of the animal, the kidney graft was removed, fixed in formalin, and stained with hematoxylin and eosin to determine the extent of pathological change. IgG and IgM staining was also done on formalin-fixed tissue, using ABC Technique as for Example 2.

skin grafts = details: cited from earlier work
[5] = cited from earlier work
renal allograft = details: cited from earlier work
cGvH disease or SLE = details: mouse, U.S. Pat. No. 4,965,276; cited from earlier work
[6] = system: epidermal growth factor (EGF)-dependent cell growth; details: cited from earlier work
[7] = system: tubulointerstitial nephritis; details: BN rats, cited from earlier work
human T-cell = details: stimulated by allogeneic lymphocytes, anti-CD3 or anti-CD28 with PMA, or IL-2 or IL-2 with PMA; cited from earlier work
EGF receptor kinase = details: cited from earlier work
[8] = 2.5 mg/kg or 5 mg/kg leflunomide
[9] = 10 mg/kg and 15 mg/kg leflunomide

Structure (SMILES): Cc1oncc1C(=O)Nc1ccc(C(F)(F)F)cc1 [leflunomide, N-(4-trifluoromethylphenyl)-5-methylisoxazol-4-carboxamide]
- effect on glomerulonephritis (glomerulonephritis): effective in both preventing and curing glomerulonephritis; also recorded: significant decrease in total urinary protein, plasma cholesterol and fibrinogen, as well as decreased deposition of fibrin, immunoglobulin G and complement C3
- inhibition of PDGFR tyrosine kinase activity [1]: inhibits the intrinsic EGF receptor kinase as well as other kinases such as platelet derived growth factor-receptor (PDGFR) tyrosine kinase activity
- effect on chronic rejection process ([2]; 5 mg/kg (each) from day 30, 10 mg/kg (each) day 60 to 90): able to halt the progression of chronic rejection and partially reverse the process of arterial thickening
- mononuclear cell infiltration, myocardial fibrosis, smooth muscle proliferation ([2]; 5 mg/kg (each) from day 30, 10 mg/kg (each) day 60 to 90, day 90): Interstitial mononuclear cell infiltration and myocardial fibrosis were mild
- arterial intimal thickening, change vs control ([2]; 5 mg/kg (each) from day 30, day 60): did not significantly improve by day 60
- Histological Scores (mean vascular histologic score) ([2]; Lef 5 mg/kg day 30 to 60, then 10 mg/kg day 60 to 90, group 8): 1.38±0.92
- Histological Scores (mean vascular histologic score) ([2]; Lef 5 mg/kg day 30 to 60, then 10 mg/kg day 60 to 90, group 8, listed as Lef): 1.4 ± 0.9
- Histological Scores (mean vascular histologic score) ([2]; Lef 5 mg/kg from day 30 to day 60, group 5, sacrificed day 60): 1.55±0.53
- Histological Scores (mean vascular histologic score) ([2]; Lef 5 mg/kg from day 30 to day 60, group 5, sacrificed day 60, listed as Lef): 1.6 ± 0.5
- anti-inflammatory activity and toxicity ([3]; U.S. Pat. No. 4,351,841): superior anti-inflammatory activity and decreased toxicity
- inhibition of immunopathological processes ([3]; two rat adjuvant arthritis models and a rat allergic encephalitis model): inhibit immunopathological processes
- inhibition of production of IL-2 (IL-2): only partially inhibits the production of IL-2
- toxicity in dogs (allogeneic kidney graft; dog, in vivo): limited, however, by toxicity due to the canine's N-acetylation enzyme deficiency
- survival (allogeneic kidney graft; leflunomide 8 mg/kg daily): 27 ± 1 days
- survival (allogeneic kidney graft; leflunomide 16 mg/kg daily): 21 ± 2 days
- time to rejection after withdrawal of leflunomide (allogeneic kidney graft; withdrawn from two dogs after 100 days, combination-treated group): ≤ 14 days
- effect on survival [4, 8]: did not significantly increase survival time
- histopathology [4, 8]: did not significantly alter histopathology compared to controls
- mean serum creatinine values vs controls [4, 8]: slightly reduced
- effect on survival [4, 9]: statistically significant improvement in survival
- histology [4, 9]: the histology did not show significant rejection
- Mean Creatinine Day 7 ([4]; Lef 2.5 mg/kg, group 2): 3.6
- Mean Survival ± S.D. ([4]; Lef 2.5 mg/kg, group 2): 8.5 ± 2.1
- Mean Creatinine Day 7 ([4]; Lef 5.0 mg/kg, group 3): 2.7
- Mean Survival ± S.D. ([4]; Lef 5.0 mg/kg, group 3): 7.0 ± 2.6
- Mean Creatinine Day 7 ([4]; Lef 10 mg/kg, group 4): 1.6
- Mean Survival ± S.D. ([4]; Lef 10 mg/kg, group 4): 17.0 ± 8.9
- Mean Creatinine Day 7 ([4]; Lef 15 mg/kg, group 5): 1.2
- Mean Survival ± S.D. ([4]; Lef 15 mg/kg, group 5): 13.2 ± 7.1
- Graft Survival for Each Subject ([4]; Lef 15 mg/kg, group 5, listed as Lef): 17,24
- terminal serum creatinine ([4]; appropriate dose of leflunomide, most of the animals): less than 2.5
- skin graft survival time vs untreated (skin grafts; 2.5 to 20 mg/kg by gavage for 10 days): more than doubled graft survival time compared to untreated animals
- skin graft survival, delayed treatment (skin grafts; started five to ten days after grafting): achieved prolongation of skin graft survival
- toxicity ([5]; animal studies, extremely high doses): liver and cardiac toxicity
- tolerability ([5]; animals and man): well tolerated in animals and man
- survival (renal allograft; 5 or 10 mg/kg/day by gavage for 30 days): more than 60 days
- protection (renal allograft; BN-LEW renal transplant): very similar to the protection attainable with CsA treatment
- glomerulonephritis, anti-dsDNA titer, GvH index, T-lymphocyte proliferative ability (cGvH disease or SLE): prevented development of glomerulonephritis, reduced anti-dsDNA titer, decreased the GvH index (a measure of relative spleen enlargement), and improved the diminished proliferative ability of T-lymphocytes
- inhibition of development of cGvH disease or SLE (cGvH disease or SLE): effective in inhibiting the development of cGvH disease or SLE
- inhibition of EGF-dependent cell growth [6]: capable of inhibiting epidermal growth factor (EGF)-dependent cell growth
- prevention of tubulointerstitial nephritis [7]: very effective
- reduction of incidence of auto-antibody formation [7]: much more effective than any of the other drugs in reducing the incidence of auto-antibody formation
- prevention of tubulointerstitial nephritis ([7]; listed as Leflunomide): as effective as Cyclosporine A, and was more effective than prednisolone, naproxen or indomethacin in preventing disease development
- inhibition of human T-cell proliferation (human T-cell): inhibit human T-cell proliferation
- inhibition of EGF receptor kinase (EGF receptor kinase): inhibits the intrinsic EGF receptor kinase
